Results: US20020137929A1, “1 - (3-heterocyclylphenyl) isothiourea, -isourea, -guanidine and -amidine herbicidal agents” (Intellectual Property Department, BASF Aktiengesellschaft, priority 1998, published 2002)

What was measured:
CASOB (Sicklepod) [1] = assay: Preemergence herbicidal evaluation; type: in vivo, Cassia obtusifolia; conditions: rated 4-5 weeks after treatment
Method in brief: (§1)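 Sown cups got a single aqueous acetone spray of test compound (roughly 0.0156–0.500 kg/ha) before seedlings emerged. Evaluation, 4–5 weeks on, used a 0–9 visual scale covering plant stand, vigor, size, malformation, chlorosis and general appearance compared with controls.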

[2] = tested on: IPOHE (Morningglory, Ivyleaf); assay: Postemergence herbicidal evaluation; type: in vivo, Ipomoea hederacea; conditions: postemergence
Method in brief: (§2)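 ~2-wk seedlings; postemergence spray, 40 psi; vehicle 1:1 acetone:water + 0.5% Tween 20; rate ≈0.0156–0.500 kg/ha; greenhouse hold; scored 4–5 wk after treatment, 0–9 scale vs control; repeat tests averaged.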

AMBEL (Ragweed, Common) = assay: Postemergence herbicidal evaluation; type: in vivo, Ambrosia artemisifolia; conditions: postemergence
Method in brief: as §2

GALAP (Galium) = assay: Postemergence herbicidal evaluation; type: in vivo, Galium aparine; conditions: postemergence
Method in brief: as §2

[3] = tested on: IPOHE (Morningglory, Ivyleaf); assay: Preemergence herbicidal evaluation; type: in vivo, Ipomoea hederacea; conditions: rated 4-5 weeks after treatment
Method in brief: as §1

CASOB (Sicklepod) [4] = assay: Postemergence herbicidal evaluation; type: in vivo, Cassia obtusifolia; conditions: postemergence
Method in brief: as §2

ECHCG (Barnyardgrass) = assay: Preemergence herbicidal evaluation; type: in vivo, Echinochloa crus-galli; conditions: rated 4-5 weeks after treatment
Method in brief: as §1

[5] = tested on: TRZAWR (Wheat, Winter, cv Riband); assay: Preemergence herbicidal evaluation; type: in vivo, Triticum aestivum; conditions: rated 4-5 weeks after treatment
Method in brief: as §1

[6] = tested on: GLXMAW (Soybean, Williams); assay: Preemergence herbicidal evaluation; type: in vivo, Glycine max, (L.) Merr. cv Williams; conditions: rated 4-5 weeks after treatment
Method in brief: as §1

[7] = tested on: SAGPY (Arrowhead (Pygmaea)); assay: Preemergence weed control under flooded paddy conditions; type: in vivo, Sagittaria pygmaea; conditions: rated 3-4 weeks after treatment
Method in brief: (§3)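 Ratings on a 0-9 visual scale cover stand, vigor, malformation, size, chlorosis and overall appearance relative to a control, taken three to four weeks post-treatment. Application was into flood water over freshly sown silt loam at roughly 0.0313 to 0.500 kg/ha.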

ZEAMX (Corn, Field) = assay: Preemergence herbicidal evaluation; type: in vivo, Zea mays; conditions: rated 4-5 weeks after treatment
Method in brief: as §1

ABUTH (Velvetleaf) = assay: Preemergence herbicidal evaluation; type: in vivo, Abutilon theophrasti; conditions: rated 4-5 weeks after treatment
Method in brief: as §1

MOOVA (Monochoria) = assay: Preemergence weed control under flooded paddy conditions; type: in vivo, Monochoria vaginalis; conditions: rated 3-4 weeks after treatment
Method in brief: as §3

[8] = rate 0.0313 kg/ha, rating scale 0-9
[9] = rate 0.0625 kg/ha, rating scale 0-9
[10] = rate 0.1250 kg/ha, rating scale 0-9
[11] = rate 0.2500 kg/ha, rating scale 0-9

## Cn1c(C(F)(F)F)cc(=O)n(-c2cc(N=C3SCC(=O)N3C3CCCC3)c(Cl)cc2F)c1=O [Compound 166, 3-{4-Chloro-5-[(3-cyclopentyl-4-oxo-2-thiazolidinylidene)amino]-2-fluorophenyl}-1-methyl-6-(trifluoromethyl)-2,4(1H,3H)-pyrimidinedione]
CASOB (Sicklepod) [1]; 0.0156 kg/ha
  Preemergence herbicidal rating CASOB: 0.0
CASOB (Sicklepod) [1]; 0.0313 kg/ha
  Preemergence herbicidal rating CASOB: 0.0
CASOB (Sicklepod) [1]; 0.0625 kg/ha
  Preemergence herbicidal rating CASOB: 2.0
CASOB (Sicklepod) [1]; 0.1250 kg/ha
  Preemergence herbicidal rating CASOB: 0.0
CASOB (Sicklepod) [1]; 0.2500 kg/ha
  Preemergence herbicidal rating CASOB: 4.0
CASOB (Sicklepod) [1]; 0.5000 kg/ha
  Preemergence herbicidal rating CASOB: 6.0
[2]; rate 0.0156 kg/ha
  Herbicidal rating IPOHE: 0.0
[2]; rate 0.0313 kg/ha
  Herbicidal rating IPOHE: 2.0
[2]; rate 0.0625 kg/ha
  Herbicidal rating IPOHE: 2.0
[2]; rate 0.1250 kg/ha
  Herbicidal rating IPOHE: 7.0
AMBEL (Ragweed, Common); rate 0.0156 kg/ha
  Herbicidal rating AMBEL: 0.0
AMBEL (Ragweed, Common); rate 0.0313 kg/ha
  Herbicidal rating AMBEL: 3.0
AMBEL (Ragweed, Common); rate 0.0625 kg/ha
  Herbicidal rating AMBEL: 6.0
AMBEL (Ragweed, Common); rate 0.1250 kg/ha
  Herbicidal rating AMBEL: 7.0
GALAP (Galium); rate 0.0156 kg/ha
  Herbicidal rating GALAP: 0.0
GALAP (Galium); rate 0.0313 kg/ha
  Herbicidal rating GALAP: 0.0
GALAP (Galium); rate 0.0625 kg/ha
  Herbicidal rating GALAP: 0.0
GALAP (Galium); rate 0.1250 kg/ha
  Herbicidal rating GALAP: 2.0
[3]; 0.0156 kg/ha
  Preemergence herbicidal rating IPOHE: 0.0
[3]; 0.0313 kg/ha
  Preemergence herbicidal rating IPOHE: 3.0
[3]; 0.1250 kg/ha
  Preemergence herbicidal rating IPOHE: 2.0
[3]; 0.2500 kg/ha
  Preemergence herbicidal rating IPOHE: 6.0
[3]; 0.5000 kg/ha
  Preemergence herbicidal rating IPOHE: 8.0
CASOB (Sicklepod) [4]; rate 0.0156 kg/ha
  Herbicidal rating CASOB: 0.0
CASOB (Sicklepod) [4]; rate 0.0313 kg/ha
  Herbicidal rating CASOB: 0.0
CASOB (Sicklepod) [4]; rate 0.0625 kg/ha
  Herbicidal rating CASOB: 0.0
CASOB (Sicklepod) [4]; rate 0.1250 kg/ha
  Herbicidal rating CASOB: 1.0
ECHCG (Barnyardgrass); 0.0156 kg/ha
  Preemergence herbicidal rating ECHCG: 0.0
ECHCG (Barnyardgrass); 0.0313 kg/ha
  Preemergence herbicidal rating ECHCG: 0.0
ECHCG (Barnyardgrass); 0.0625 kg/ha
  Preemergence herbicidal rating ECHCG: 1.0
ECHCG (Barnyardgrass); 0.1250 kg/ha
  Preemergence herbicidal rating ECHCG: 0.0
ECHCG (Barnyardgrass); 0.2500 kg/ha
  Preemergence herbicidal rating ECHCG: 0.0
ECHCG (Barnyardgrass); 0.5000 kg/ha
  Preemergence herbicidal rating ECHCG: 4.0
[5]; 0.0156 kg/ha
  Preemergence herbicidal rating TRZAWR: 0.0
[5]; 0.0313 kg/ha
  Preemergence herbicidal rating TRZAWR: 0.0
[5]; 0.0625 kg/ha
  Preemergence herbicidal rating TRZAWR: 1.0
[5]; 0.1250 kg/ha
  Preemergence herbicidal rating TRZAWR: 1.0
[5]; 0.2500 kg/ha
  Preemergence herbicidal rating TRZAWR: 1.0
[5]; 0.5000 kg/ha
  Preemergence herbicidal rating TRZAWR: 3.0
[6]; 0.0156 kg/ha
  Preemergence herbicidal rating GLXMAW: 0.0
[6]; 0.0313 kg/ha
  Preemergence herbicidal rating GLXMAW: 2.0
[6]; 0.0625 kg/ha
  Preemergence herbicidal rating GLXMAW: 2.0
[6]; 0.1250 kg/ha
  Preemergence herbicidal rating GLXMAW: 2.0
[6]; 0.2500 kg/ha
  Preemergence herbicidal rating GLXMAW: 6.0
[6]; 0.5000 kg/ha
  Preemergence herbicidal rating GLXMAW: 6.0
[7]; 0.0313 kg/ha
  herbicidal effect rating, SAGPY: 2.0
[7]; 0.0625 kg/ha
  herbicidal effect rating, SAGPY: 4.0
[7]; 0.1250 kg/ha
  herbicidal effect rating, SAGPY: 5.0
[7]; 0.2500 kg/ha
  herbicidal effect rating, SAGPY: 6.0
ZEAMX (Corn, Field); 0.0156 kg/ha
  Preemergence herbicidal rating ZEAMX: 0.0
ZEAMX (Corn, Field); 0.0313 kg/ha
  Preemergence herbicidal rating ZEAMX: 0.0
ZEAMX (Corn, Field); 0.0625 kg/ha
  Preemergence herbicidal rating ZEAMX: 1.0
ZEAMX (Corn, Field); 0.1250 kg/ha
  Preemergence herbicidal rating ZEAMX: 1.0
ZEAMX (Corn, Field); 0.2500 kg/ha
  Preemergence herbicidal rating ZEAMX: 3.0
ZEAMX (Corn, Field); 0.5000 kg/ha
  Preemergence herbicidal rating ZEAMX: 6.0
ABUTH (Velvetleaf); 0.0156 kg/ha
  Preemergence herbicidal rating ABUTH: 0.0
ABUTH (Velvetleaf); 0.0313 kg/ha
  Preemergence herbicidal rating ABUTH: 2.0
ABUTH (Velvetleaf); 0.0625 kg/ha
  Preemergence herbicidal rating ABUTH: 1.0
ABUTH (Velvetleaf); 0.1250 kg/ha
  Preemergence herbicidal rating ABUTH: 7.0
ABUTH (Velvetleaf); 0.2500 kg/ha
  Preemergence herbicidal rating ABUTH: 9.0
ABUTH (Velvetleaf); 0.5000 kg/ha
  Preemergence herbicidal rating ABUTH: 9.0
MOOVA (Monochoria); 0.0313 kg/ha
  herbicidal effect rating, MOOVA: 9.0
MOOVA (Monochoria); 0.0625 kg/ha
  herbicidal effect rating, MOOVA: 9.0
MOOVA (Monochoria); 0.1250 kg/ha
  herbicidal effect rating, MOOVA: 9.0
MOOVA (Monochoria); 0.2500 kg/ha
  herbicidal effect rating, MOOVA: 9.0

## Cn1c(C(F)(F)F)cc(=O)n(-c2cc(N=C3SCC(=O)N3Cc3ccccn3)c(Cl)cc2F)c1=O [Compound 131]
CASOB (Sicklepod) [1]; [8]
  Preemergence herbicidal rating CASOB: 0.0
CASOB (Sicklepod) [1]; [9]
  Preemergence herbicidal rating CASOB: 0.0
CASOB (Sicklepod) [1]; [10]
  Preemergence herbicidal rating CASOB: 0.0
CASOB (Sicklepod) [1]; [11]
  Preemergence herbicidal rating CASOB: 2.0
[2]; rate 0.0156 kg/ha
  Herbicidal rating IPOHE: 7.0
[2]; rate 0.0313 kg/ha
  Herbicidal rating IPOHE: 9.0
[2]; rate 0.0625 kg/ha
  Herbicidal rating IPOHE: 9.0
AMBEL (Ragweed, Common); rate 0.0156 kg/ha
  Herbicidal rating AMBEL: 7.0
AMBEL (Ragweed, Common); rate 0.0313 kg/ha
  Herbicidal rating AMBEL: 9.0
AMBEL (Ragweed, Common); rate 0.0625 kg/ha
  Herbicidal rating AMBEL: 9.0
GALAP (Galium); rate 0.0156 kg/ha
  Herbicidal rating GALAP: 1.0
GALAP (Galium); rate 0.0313 kg/ha
  Herbicidal rating GALAP: 3.0
GALAP (Galium); rate 0.0625 kg/ha
  Herbicidal rating GALAP: 3.0
[3]; [8]
  Preemergence herbicidal rating IPOHE: 0.0
[3]; [9]
  Preemergence herbicidal rating IPOHE: 0.0
[3]; [10]
  Preemergence herbicidal rating IPOHE: 0.0
[3]; [11]
  Preemergence herbicidal rating IPOHE: 0.0
CASOB (Sicklepod) [4]; rate 0.0156 kg/ha
  Herbicidal rating CASOB: 1.0
CASOB (Sicklepod) [4]; rate 0.0313 kg/ha
  Herbicidal rating CASOB: 1.0
CASOB (Sicklepod) [4]; rate 0.0625 kg/ha
  Herbicidal rating CASOB: 3.0
ECHCG (Barnyardgrass); [8]
  Preemergence herbicidal rating ECHCG: 0.0
ECHCG (Barnyardgrass); [9]
  Preemergence herbicidal rating ECHCG: 0.0
ECHCG (Barnyardgrass); [10]
  Preemergence herbicidal rating ECHCG: 0.0
ECHCG (Barnyardgrass); [11]
  Preemergence herbicidal rating ECHCG: 2.0
[5]; [8]
  Preemergence herbicidal rating TRZAWR: 0.0
[5]; [9]
  Preemergence herbicidal rating TRZAWR: 0.0
[5]; [10]
  Preemergence herbicidal rating TRZAWR: 0.0
[5]; [11]
  Preemergence herbicidal rating TRZAWR: 0.0
[6]; [8]
  Preemergence herbicidal rating GLXMAW: 0.0
[6]; [9]
  Preemergence herbicidal rating GLXMAW: 1.0
[6]; [10]
  Preemergence herbicidal rating GLXMAW: 1.0
[6]; [11]
  Preemergence herbicidal rating GLXMAW: 1.0
[7]; 0.1250 kg/ha
  herbicidal effect rating, SAGPY: 0.0
[7]; 0.2500 kg/ha
  herbicidal effect rating, SAGPY: 2.0
ZEAMX (Corn, Field); [8]
  Preemergence herbicidal rating ZEAMX: 0.0
ZEAMX (Corn, Field); [9]
  Preemergence herbicidal rating ZEAMX: 0.0
ZEAMX (Corn, Field); [10]
  Preemergence herbicidal rating ZEAMX: 0.0
ZEAMX (Corn, Field); [11]
  Preemergence herbicidal rating ZEAMX: 0.0
ABUTH (Velvetleaf); [8]
  Preemergence herbicidal rating ABUTH: 0.0
ABUTH (Velvetleaf); [9]
  Preemergence herbicidal rating ABUTH: 0.0
ABUTH (Velvetleaf); [10]
  Preemergence herbicidal rating ABUTH: 2.0
ABUTH (Velvetleaf); [11]
  Preemergence herbicidal rating ABUTH: 9.0
MOOVA (Monochoria); 0.1250 kg/ha
  herbicidal effect rating, MOOVA: 0.0
MOOVA (Monochoria); 0.2500 kg/ha
  herbicidal effect rating, MOOVA: 2.0
